Assay results from the CheMixHub viscosity set.

Assay: xn = mol fraction of the nth substance listed

CC(CC(C)(C)C)CP(=O)([O-])CC(C)CC(C)(C)C.CCCCCCCC[P+](C)(C)C (centres undefined) + CCCCCCCCCCCC
viscosity [mPa·s], 101 kPa
Conditions	298.15 K	303.15 K	308.15 K	313.15 K	318.15 K	323.15 K
x2 = 0.24	172	129	99.8	79.4	63.3	51.3
x2 = 0.41	58.2	46	36.5	30	25	21.3
x2 = 0.55	23.8	20.1	17.1	14.9	12.9	–

CCCCCC(C)O (centres undefined) + CCCCCCCCCCCC
298.15 K, 101 kPa
Conditions	viscosity [mPa·s]
x2 = 0.0554	4.35
x2 = 0.0998	3.85
x2 = 0.1555	3.3
x2 = 0.1998	2.92
x2 = 0.2554	2.51
x2 = 0.2998	2.23
x2 = 0.3554	1.94
x2 = 0.4	1.74
x2 = 0.4555	1.54
x2 = 0.4999	1.42
x2 = 0.5554	1.3
x2 = 0.5998	1.22
x2 = 0.6554	1.16
x2 = 0.6998	1.12
x2 = 0.7553	1.09
x2 = 0.7999	1.08
x2 = 0.8554	1.07
x2 = 0.8995	1.06
x2 = 0.9546	1.11

CCCCCCCCCc1ccccc1 + CCCCCCCCCCCCCCCC
viscosity [mPa·s], 102 kPa
Conditions	x1 = 0.1006	x1 = 0.2005	x1 = 0.3005	x1 = 0.4001	x1 = 0.5008	x1 = 0.6006	x1 = 0.6997	x1 = 0.7978	x1 = 0.9003
293.15 K	3.4	3.32	3.28	3.22	3.18	3.15	3.13	3.12	3.12
303.15 K	2.71	2.65	2.62	2.58	2.54	2.52	2.51	2.5	–
313.15 K	2.2	2.16	2.13	2.11	2.09	2.06	2.05	2.05	2.05
323.15 K	1.83	1.8	1.78	1.76	1.74	1.73	1.72	1.71	1.71

CCCCCCCCCCCCCCCCCCCc1ccccc1 + CCCCCCCCCCCCCCCCCCC
313.15 K, 101 kPa
Conditions	viscosity [mPa·s]
x2 = 0.1066	7.51
x2 = 0.1924	7.01
x2 = 0.433	5.74
x2 = 0.4887	5.47
x2 = 0.6377	4.83
x2 = 0.7465	4.38
x2 = 0.8251	4.09

CC(C)NC(C)C + CCCCCCCCCCO
viscosity [mPa·s], 101 kPa
Conditions	298.15 K	303.15 K	308.15 K
x1 = 0.0531	9.942	8.148	6.888
x1 = 0.1065	8.911	7.421	6.317
x1 = 0.1557	8.093	6.67	5.66
x1 = 0.2072	7.186	5.835	4.947
x1 = 0.2506	6.335	5.168	4.413
x1 = 0.3127	5.184	4.271	3.777
x1 = 0.4084	3.737	3.133	2.732
x1 = 0.5054	2.653	2.228	2.059
x1 = 0.6066	1.752	1.522	1.375
x1 = 0.7056	1.183	1.059	0.956
x1 = 0.8036	0.838	0.75	0.702
x1 = 0.853	0.689	0.628	0.587
x1 = 0.9073	0.531	0.494	0.467
x1 = 0.9521	0.459	0.43	0.358

CCCCCCCCCCCO + CCCCCCCCCCO
Conditions	viscosity [mPa·s]
293.15 K, 101.33 kPa, x2 = 0.1426	16.47
293.15 K, 101.33 kPa, x2 = 0.4429	15.7
293.15 K, 101.33 kPa, x2 = 0.6078	15.37
293.15 K, 101.33 kPa, x2 = 0.7475	15.08
293.15 K, 101.33 kPa, x2 = 0.889	14.71
298.15 K, 101 kPa, x2 = 0.6999	12.35
298.15 K, 101.33 kPa, x2 = 0.1426	13.44
298.15 K, 101.33 kPa, x2 = 0.298	13.14
298.15 K, 101.33 kPa, x2 = 0.7475	12.33
298.15 K, 101.8 kPa, x2 = 0.1083	13.95
298.15 K, 101.8 kPa, x2 = 0.3183	13.43
298.15 K, 101.8 kPa, x2 = 0.5207	12.98
298.15 K, 101.8 kPa, x2 = 0.7164	12.54
308.15 K, 101.8 kPa, x2 = 0.1083	9.593
308.15 K, 101.8 kPa, x2 = 0.3183	9.242
308.15 K, 101.8 kPa, x2 = 0.5207	8.963
308.15 K, 101.8 kPa, x2 = 0.7164	8.674
308.15 K, 101.8 kPa, x2 = 0.907	8.384
318.15 K, 101.8 kPa, x2 = 0.1083	6.748
318.15 K, 101.8 kPa, x2 = 0.3183	6.559
318.15 K, 101.8 kPa, x2 = 0.5207	6.332
318.15 K, 101.8 kPa, x2 = 0.7164	6.148
318.15 K, 101.8 kPa, x2 = 0.907	5.962

CCCCCCCCCCCO + CCCCCCCCCO
viscosity [mPa·s]
Conditions	x2 = 0.116	x2 = 0.3375	x2 = 0.5442	x2 = 0.7372	x2 = 0.7995	x2 = 0.9152
298.15 K, 101 kPa	–	–	–	–	10.35	–
298.15 K, 101.8 kPa	13.57	12.52	–	–	–	9.874
308.15 K, 101.8 kPa	9.384	8.667	8.041	7.476	–	6.965
318.15 K, 101.8 kPa	6.631	6.157	5.752	5.366	–	5.017

CC(C)NC(C)C + CCCCCCCCO
viscosity [mPa·s], 101 kPa
Conditions	298.15 K	303.15 K	308.15 K
x1 = 0.0552	6.422	5.366	4.483
x1 = 0.1034	5.774	4.866	4.045
x1 = 0.1579	5.107	4.286	3.62
x1 = 0.2037	4.51	3.87	3.235
x1 = 0.2551	3.898	3.326	2.826
x1 = 0.3074	3.339	2.871	2.455
x1 = 0.4058	2.441	2.128	1.84
x1 = 0.5058	1.758	1.535	1.352
x1 = 0.606	1.265	1.143	1.046
x1 = 0.7025	0.916	0.84	0.76
x1 = 0.8044	0.664	0.616	0.58
x1 = 0.8545	0.571	0.537	0.502
x1 = 0.8931	0.509	0.487	0.452
x1 = 0.9418	0.442	0.431	0.401

CCCCCCCCCCCO + CCCCCCCCO
viscosity [mPa·s]
Conditions	293.15 K	298.15 K	308.15 K	318.15 K
101 kPa, x2 = 0.1003	–	13.35	–	–
101 kPa, x2 = 0.6998	10.95	–	–	–
101.8 kPa, x2 = 0.1273	–	13.25	9.151	6.474
101.8 kPa, x2 = 0.3622	–	11.61	8.096	5.781
101.8 kPa, x2 = 0.5698	–	10.24	7.208	5.187
101.8 kPa, x2 = 0.756	–	9.094	6.447	4.673
101.8 kPa, x2 = 0.9212	–	7.658	5.5	4.027

CCCCCCCCCCCO + CCCCCCCO
viscosity [mPa·s]
Conditions	x2 = 0.1397	x2 = 0.2254	x2 = 0.388	x2 = 0.5976	x2 = 0.7764	x2 = 0.9311
293.15 K, 101 kPa	–	14.95	–	–	–	–
298.15 K, 101.8 kPa	12.82	–	10.49	8.805	7.365	6.099
308.15 K, 101.8 kPa	8.867	–	7.363	6.26	5.311	4.433
318.15 K, 101.8 kPa	6.299	–	5.309	4.554	3.906	3.289

CC(C)NC(C)C + CCCCCCO
viscosity [mPa·s], 101 kPa
Conditions	298.15 K	303.15 K	308.15 K
x1 = 0.0503	3.969	3.366	2.859
x1 = 0.1067	3.51	3.018	2.588
x1 = 0.1499	3.195	2.751	2.379
x1 = 0.2041	2.823	2.438	2.114
x1 = 0.253	2.501	2.171	1.901
x1 = 0.3054	2.188	1.9	1.675
x1 = 0.4026	1.665	1.475	1.318
x1 = 0.4986	1.272	1.156	1.046
x1 = 0.6007	0.952	0.883	0.813
x1 = 0.7077	0.718	0.675	0.628
x1 = 0.7994	0.582	0.547	0.514
x1 = 0.8518	0.52	0.492	0.462
x1 = 0.9021	0.471	0.443	0.42
x1 = 0.9545	0.42	0.401	0.378

CCCCCCCCCCCO + CCCCCCO
viscosity [mPa·s], 101.8 kPa
Conditions	x2 = 0.1577	x2 = 0.4196	x2 = 0.6279	x2 = 0.7981	x2 = 0.9389
298.15 K	12.3	9.508	7.506	6.064	4.788
308.15 K	8.55	6.727	5.412	4.436	3.545
318.15 K	6.083	4.876	3.983	3.309	2.68

CCOC(=O)CC(C)=O + CCCCCCO
viscosity [mPa·s], 100 kPa
Conditions	x1 = 0.1053	x1 = 0.1983	x1 = 0.2962	x1 = 0.3947	x1 = 0.4947	x1 = 0.5989	x1 = 0.6989	x1 = 0.7954	x1 = 0.892
293.15 K	3.828	3.026	2.545	2.245	2.034	1.867	1.749	1.688	1.655
298.15 K	3.286	2.644	2.285	2.022	1.809	1.651	1.571	1.555	1.538

CCCCCCn1cc[n+](C)c1.[Cl-] + CCCCCCn1cc[n+](C)c1.F[B-](F)(F)F
101 kPa
Conditions	viscosity [mPa·s]
303.15 K, x1 = 0.2	375.2
303.15 K, x1 = 0.4	795.2
308.15 K, x1 = 0.4	552.8
313.15 K, x1 = 0.4	394.5
318.15 K, x1 = 0.6	563.8
323.15 K, x1 = 0.6	403.5
323.15 K, x1 = 0.8	843.9
